SMILES strings stand for the structures. Bridge positions count the residues as written; N and C are the ends. Peptide text beside a SMILES is read from it. * marks the point of attachment. Pentanoyl = CCCCC(=O)*

A short description of this data set: toxicity in vivo, LD50 after intracerebroventricular injection. The note with it: mouse, icv or intrathecal, 20 g C57/BL6 mice. On the procedure: Groups of six to eight mice per dose were injected with 5 μl peptide solution containing 0.1% (w/v) bovine serum albumin and 0.9% (w/v) NaCl. The LD50 values are set out in Table 5.
Consider `CC[C@H](C)[C@@H]1NC(=O)[C@H](CCCCN)NC(=O)[C@@H](NC(=O)[C@H](CCCCN)NC(=O)[C@@H](NC(=O)[C@H](CC(N)=O)NC(=O)[C@@H](NC(=O)[C@@H](NC(=O)[C@@H](N)C(C)C)[C@@H](C)CC)[C@@H](C)CC)C(C)C)CSSC[C@@H]2NC(=O)[C@H](CCCCN)NC(=O)CNC(=O)[C@H](Cc3ccccc3)NC(=O)[C@H](CCCNC(=N)N)NC(=O)[C@H](CCSC)NC(=O)CNC(=O)[C@H](C)NC(=O)[C@H](CC(=O)O)NC(=O)[C@H](CCCCN)NC(=O)[C@@H]3CSSC[C@@H](C(=O)N[C@H](C(=O)N4CCC[C@H]4C(=O)N[C@@H](CCCCN)C(N)=O)[C@@H](C)O)NC(=O)[C@H](Cc4c[nH]cn4)NC(=O)[C@H](CSSC[C@H](NC(=O)[C@H](CCC(N)=O)NC(=O)[C@H](CCCNC(=N)N)NC(=O)[C@H](CO)NC1=O)C(=O)N[C@@H](CC(C)C)C(=O)N[C@@H](CCCCN)C(=O)N1CCC[C@H]1C(=O)N3)NC(=O)[C@H](CCCCN)NC(=O)CNC(=O)[C@H](CC(N)=O)NC(=O)[C@H](CCSC)NC2=O` (H-VIINVKCKISRQCLKPCKDAGMRFGKCMNGKCHCTPK-NH2; disulfide 7-27, 13-32, 17-34), for which the LD50 – broadly, the dose expected to kill half of the subjects tested – came out at 4.5 µg/kg.

`CC[C@H](C)[C@@H]1NC(=O)[C@H](CCCCN)NC(=O)[C@@H](NC(=O)[C@H](CCCCN)NC(=O)[C@@H](NC(=O)[C@H](CC(N)=O)NC(=O)[C@@H](NC(=O)[C@@H](NC(=O)[C@@H](N)C(C)C)[C@@H](C)CC)[C@@H](C)CC)C(C)C)CSSC[C@@H]2NC(=O)[C@H](CCCCN)NC(=O)CNC(=O)[C@H](Cc3ccccc3)NC(=O)[C@H](CCCNC(=N)N)NC(=O)[C@H](CCSC)NC(=O)CNC(=O)[C@H](C)NC(=O)[C@H](CC(=O)O)NC(=O)[C@H](CCCCN)NC(=O)[C@@H]3CSSC[C@@H](C(=O)N[C@H](C(=O)N4CCC[C@H]4C(=O)N[C@@H](CCCCN)C(=O)O)[C@@H](C)O)NC(=O)[C@H](Cc4c[nH]cn4)NC(=O)[C@H](CSSC[C@H](NC(=O)[C@H](CCC(N)=O)NC(=O)[C@H](CCCNC(=N)N)NC(=O)[C@H](CO)NC1=O)C(=O)N[C@@H](CC(C)C)C(=O)N[C@@H](CCCCN)C(=O)N1CCC[C@H]1C(=O)N3)NC(=O)[C@H](CCCCN)NC(=O)CNC(=O)[C@H](CC(N)=O)NC(=O)[C@H](CCSC)NC2=O` (H-VIINVKCKISRQCLKPCKDAGMRFGKCMNGKCHCTPK-OH; disulfide 7-27, 13-32, 17-34) had an LD50 of 3 µg/kg. Compound `CCCCC(=O)NCC(=O)N[C@H](C(=O)N[C@H](C(=O)N[C@H](C(=O)N[C@@H](CC(N)=O)C(=O)N[C@H](C(=O)N[C@@H](CCCCN)C(=O)N[C@H]1CSSC[C@@H]2NC(=O)[C@H](CCCCN)NC(=O)CNC(=O)[C@H](Cc3ccccc3)NC(=O)[C@H](CCCNC(=N)N)NC(=O)[C@H](CCSC)NC(=O)CNC(=O)[C@H](C)NC(=O)[C@H](CC(=O)O)NC(=O)[C@H](CCCCN)NC(=O)[C@@H]3CSSC[C@@H](C(=O)N[C@H](C(=O)N4CCC[C@H]4C(=O)N[C@@H](CCCCN)C(=O)O)[C@@H](C)O)NC(=O)[C@H](Cc4c[nH]cn4)NC(=O)[C@H](CSSC[C@H](NC(=O)[C@H](CCC(N)=O)NC(=O)[C@H](CCCNC(=N)N)NC(=O)[C@H](CO)NC(=O)[C@H]([C@@H](C)CC)NC(=O)[C@H](CCCCN)NC1=O)C(=O)N[C@@H](CC(C)C)C(=O)N[C@@H](CCCCN)C(=O)N1CCC[C@H]1C(=O)N3)NC(=O)[C@H](CCCCN)NC(=O)CNC(=O)[C@H](CC(N)=O)NC(=O)[C@H](CCSC)NC2=O)C(C)C)[C@@H](C)CC)[C@@H](C)CC)C(C)C` (Pentanoyl-GVIINVKCKISRQCLKPCKDAGMRFGKCMNGKCHCTPK-OH; disulfide 8-28, 14-33, 18-35) displayed a 50% lethal dose (LD50) of 16 µg/kg. Compound `CC[C@H](C)[C@@H]1NC(=O)[C@H](CCCCN)NC(=O)[C@@H](NC(=O)[C@H](CCCCN)NC(=O)[C@@H](NC(=O)[C@H](CC(N)=O)NC(=O)[C@@H](NC(=O)[C@@H](NC(=O)[C@@H](NC(=O)CN)C(C)C)[C@@H](C)CC)[C@@H](C)CC)C(C)C)CSSC[C@@H]2NC(=O)[C@H](CCCCN)NC(=O)CNC(=O)[C@H](Cc3ccccc3)NC(=O)[C@H](CCCNC(=N)N)NC(=O)[C@H](CCSC)NC(=O)CNC(=O)[C@H](C)NC(=O)[C@H](CCCCN)NC(=O)[C@H](CCCCN)NC(=O)[C@@H]3CSSC[C@@H](C(=O)N[C@H](C(=O)N4CCC[C@H]4C(=O)N[C@@H](CCCCN)C(N)=O)[C@@H](C)O)NC(=O)[C@H](Cc4c[nH]cn4)NC(=O)[C@H](CSSC[C@H](NC(=O)[C@H](CCC(N)=O)NC(=O)[C@H](CCCNC(=N)N)NC(=O)[C@H](CO)NC1=O)C(=O)N[C@@H](CC(C)C)C(=O)N[C@@H](CCC(=O)O)C(=O)N1CCC[C@H]1C(=O)N3)NC(=O)[C@H](CCCCN)NC(=O)CNC(=O)[C@H](CC(N)=O)NC(=O)[C@H](CCSC)NC2=O` [OsK1-NH2] gave an LD50 of 3.5 µg/kg.

The compound `CC[C@H](C)[C@@H]1NC(=O)[C@H](CCCCN)NC(=O)[C@@H](NC(=O)[C@H](CCCCN)NC(=O)[C@@H](NC(=O)[C@H](CC(N)=O)NC(=O)[C@@H](NC(=O)[C@@H](NC(=O)[C@@H](NC(=O)CN)C(C)C)[C@@H](C)CC)[C@@H](C)CC)C(C)C)CSSC[C@@H]2NC(=O)[C@H](CCCCN)NC(=O)CNC(=O)[C@H](Cc3ccccc3)NC(=O)[C@H](CCCNC(=N)N)NC(=O)[C@H](CCSC)NC(=O)CNC(=O)[C@H](C)NC(=O)[C@H](CCCCN)NC(=O)[C@H](CCCCN)NC(=O)[C@@H]3CSSC[C@@H](C(=O)N[C@H](C(=O)N4CCC[C@H]4C(=O)N[C@@H](CCCCN)C(=O)O)[C@@H](C)O)NC(=O)[C@H](C)NC(=O)[C@H](CSSC[C@H](NC(=O)[C@H](CCC(N)=O)NC(=O)[C@H](CCCNC(=N)N)NC(=O)[C@H](CO)NC1=O)C(=O)N[C@@H](CC(C)C)C(=O)N[C@@H](CCC(=O)O)C(=O)N1CCC[C@H]1C(=O)N3)NC(=O)[C@H](CCCCN)NC(=O)CNC(=O)[C@H](CC(N)=O)NC(=O)[C@H](CCSC)NC2=O` [[A^34]-OsK1] (H-GVIINVKCKISRQCLEPCKKAGMRFGKCMNGKCACTPK-OH; disulfide 8-28, 14-33, 18-35) came in with an LD50 of 10 µg/kg. For `CC[C@H](C)[C@@H]1NC(=O)[C@H](CCCCN)NC(=O)[C@@H](NC(=O)[C@H](CCCCN)NC(=O)[C@@H](NC(=O)[C@H](CC(N)=O)NC(=O)[C@@H](NC(=O)[C@@H](NC(=O)[C@@H](NC(=O)CN)C(C)C)[C@@H](C)CC)[C@@H](C)CC)C(C)C)CSSC[C@@H]2NC(=O)[C@H](CCCCN)NC(=O)CNC(=O)[C@H](Cc3ccccc3)NC(=O)[C@H](CCCNC(=N)N)NC(=O)[C@H](CCSC)NC(=O)CNC(=O)[C@H](C)NC(=O)[C@H](CC(=O)O)NC(=O)[C@H](CCCCN)NC(=O)[C@@H]3CSSC[C@@H](C(=O)N[C@H](C(=O)N4CCC[C@H]4C(=O)N[C@@H](CCCCN)C(=O)O)[C@@H](C)O)NC(=O)[C@H](Cc4c[nH]cn4)NC(=O)[C@H](CSSC[C@H](NC(=O)[C@H](CCC(N)=O)NC(=O)[C@H](CCCNC(=N)N)NC(=O)[C@H](CO)NC1=O)C(=O)N[C@@H](CC(C)C)C(=O)N[C@@H](CCC(=O)O)C(=O)N1CCC[C@H]1C(=O)N3)NC(=O)[C@H](CCCCN)NC(=O)CNC(=O)[C@H](CC(N)=O)NC(=O)[C@H](CCSC)NC2=O` [[D^20]-OsK1] (H-GVIINVKCKISRQCLEPCKDAGMRFGKCMNGKCHCTPK-OH; disulfide 8-28, 14-33, 18-35) the value was 4.5 µg/kg. The figure for `CC[C@H](C)[C@@H]1NC(=O)[C@H](CCCCN)NC(=O)[C@@H](NC(=O)[C@H](CCCCN)NC(=O)[C@@H](NC(=O)[C@H](CC(N)=O)NC(=O)[C@@H](NC(=O)[C@@H](NC(=O)[C@@H](N)C(C)C)[C@@H](C)CC)[C@@H](C)CC)C(C)C)CSSC[C@@H]2NC(=O)[C@H](CCCCN)NC(=O)CNC(=O)[C@H](Cc3ccccc3)NC(=O)[C@H](CCCNC(=N)N)NC(=O)[C@H](CCSC)NC(=O)CNC(=O)[C@H](C)NC(=O)[C@H](CCCCN)NC(=O)[C@H](CCCCN)NC(=O)[C@@H]3CSSC[C@@H](C(=O)N[C@H](C(=O)N4CCC[C@H]4C(=O)N[C@@H](CCCCN)C(N)=O)[C@@H](C)O)NC(=O)[C@H](Cc4c[nH]cn4)NC(=O)[C@H](CSSC[C@H](NC(=O)[C@H](CCC(N)=O)NC(=O)[C@H](CCCNC(=N)N)NC(=O)[C@H](CO)NC1=O)C(=O)N[C@@H](CC(C)C)C(=O)N[C@@H](CCC(=O)O)C(=O)N1CCC[C@H]1C(=O)N3)NC(=O)[C@H](CCCCN)NC(=O)CNC(=O)[C@H](CC(N)=O)NC(=O)[C@H](CCSC)NC2=O` [[Δ^1]-OsK1-NH2] (H-VIINVKCKISRQCLEPCKKAGMRFGKCMNGKCHCTPK-NH2; disulfide 7-27, 13-32, 17-34) is 7 µg/kg.

For the origin of these results see US7745575B1 (Cellpep Pharma Inc., priority 2004, dated 2010).
